In paper PMC11882969 (Nature Communications, 2025):
Several values for one entry are separate records, joined by “and”; a condition that tells them apart may be missing. Identical values can stand only once.

Tests used:
mice = experiment: Catalepsy test, vertical wire mesh; format: in vivo, mouse
Experimental: Thirty min after an i.p. injection of the compounds, mice were placed on a vertical wire mesh and the latency to move all four paws was recorded.

[1] = Pharmacokinetics: plasma, brain, CSF

In the case of O=C(CCCN1CCC(O)(c2ccc(Cl)cc2)CC1)c1ccc(F)cc1 [haloperidol, reference compound], the “catalepsy (Figure6c), individual animals” value (mice; 1 mg/kg dose) is reported as 21 and 17 and 11.5 and 18 and 14 and the “catalepsy, latency to move all four paws” value (mice; i.p., ‘1350 at 0.2 or 0.5 mg/kg, haloperidol 1.0 mg/kg) is reported as “induced catalepsy”.
With CCCCCCC(C)(C)c1ccc([C@@H]2C[C@H](O)CC[C@H]2CCCO)c(O)c1 [CP55940] the “Brain, Mean” value ([1]; Time 1 min) was 0, the “CSF, Mean” value ([1]; Time 1 min) was 0 and the “Plasma, Mean” value ([1]; Time 1 min) was 0. For the same compound, the “Brain, Mean” value ([1]; Time 5 min) was 0, the “CSF, Mean” value ([1]; Time 5 min) was 0 and the “Plasma, Mean” value ([1]; Time 5 min) was 21.5. The “Brain, Mean” value ([1]; Time 15 min) was 11.5, the “CSF, Mean” value ([1]; Time 15 min) was 0 and the “Plasma, Mean” value ([1]; Time 15 min) was 47.5. For the same compound, the “Brain, Mean” value ([1]; Time 30 min) was 19.2, the “CSF, Mean” value ([1]; Time 30 min) was 0 and the “Plasma, Mean” value ([1]; Time 30 min) was 48.4. The “Brain, Mean” value ([1]; Time 60 min) was 17.1, the “CSF, Mean” value ([1]; Time 60 min) was 0 and the “Plasma, Mean” value ([1]; Time 60 min) was 26.7. For the same compound, the “Brain, Mean” value ([1]; Time 120 min) was 11.9, the “CSF, Mean” value ([1]; Time 120 min) was 0 and the “Plasma, Mean” value ([1]; Time 120 min) was 10.6. For the same compound, the “Brain, Mean” value ([1]; Time 240 min) was 3.09, the “CSF, Mean” value ([1]; Time 240 min) was 0 and the “Plasma, Mean” value ([1]; Time 240 min) was 2.6. The “Brain, Mean” value ([1]; Time 360 min) was 0, the “CSF, Mean” value ([1]; Time 360 min) was 0 and the “Plasma, Mean” value ([1]; Time 360 min) was 0. The “Brain, Mean” value ([1]; Time 480 min) was 0, the “CSF, Mean” value ([1]; Time 480 min) was 0 and the “Plasma, Mean” value ([1]; Time 480 min) was 0. For the same compound, the “Brain, Mean” value ([1]; Time […]) was 0, the “CSF, Mean” value ([1]; Time […]) was 0 and the “Plasma, Mean” value ([1]; Time […]) was 0.
